Laboratory results: patent US20160281050A1, “METHODS FOR TREATING A CULTURE OF HAEMATOCOCCUS PLUVIALIS FOR CONTAMINATION USING SALT AND HYDROGEN PEROXIDE” (HELIAE DEVELOPMENT LLC, priority 2015, published 2016)
Where two headings read alike, the source gives them in different places.

Tests used:
chytrids = assay: % chytrid infection in 230 L reactors, salt treatment (Example 12); format: cell-based
Protocol: This test was done side by side in flasks (0.1 L) and in reactors located in a greenhouse operating in conditions: reactor volume of 230 L; Daily PAR of 20 mol m^−2 d^−1; pH (not measured); and paddlewheel speed of 21 RPM. […] The flask cultures were mixed by shaking at 140 rpm and received 300-400 μmol/m^2 s of photosynthetically active radiation (PAR) in 12 hour light cycles and constant supply of 2.5% CO2. The motility of the culture was monitored by visual observation under a microscope. […] Nine 230 L reactors were also seeded with culture from bioreactor #2410 on the same day as the flasks and brought to 2 ppt concentration of salt. Once motility of the cells was reduced to <10% (day 3 of culture for flasks and day 2 for 230 L reactors) the level of salt was elevated to a point between 4-18 ppt and compared to the culture in two reactors remaining at 2 ppt salt. Flasks and 230 L reactors were monitored for percentage of cell lysis via visual observation under a microscope, culture dry weight (biomass accumulation in g/L), and percentage of chytrid infection via visual observation under a microscope. Carotenoid production, a proxy for determining astaxanthin, was quantified every other day of culture in the 230 L reactors using the UV method.

pure chytrid culture = assay: Chytrid tolerance: pure chytrid culture in well plate, observed under a microscope (Examples 13-14); format: cell-based
Protocol: Experiments were performed to determine chytrid tolerance to bleach, salt, Lufenuron (chemical biocide), and Rid Fungus (blend of natural organic herbs) for evaluation as a treatment for chytrids. A pure chytrid culture in a well plate was treated every 24 hours and observed under a microscope to determine the effect. An untreated culture was used as a control for comparison purposes. Qualitative assessments and quantitative estimates were made by visual observation under a microscope.
Several concentrations of salt and Rid Fungus (blend of organic herbs) were further investigated as a chytrid treatment, as in Example 13. A pure chytrid culture in a well plate was treated and visually observed under a microscope to determine the effect. An untreated culture was used as a control for comparison purposes.

[1] = test system: Haematococcus pluvialis (Strain 1) green swimmer cells
Protocol: (§1) An experiment was conducted to determine if treating a culture of Haematococcus pluvialis with hydrogen peroxide affects the live bacteria count. […] The culture in bioreactor #2210 was treated with 0.33 mL/L hydrogen peroxide 3% stock concentration (calculated concentration of 0.0099 mL/L) every 6 hours for the duration of the culture's green swimmer stage (90 hours). The culture in bioreactor #2230 was not treated to serve as a control for comparison. Samples were taken to assess motility, lysis, and the live bacteria count in the cultures at 11, 34, 52, and 66 hours.

live bacteria = conditions: 0.0099 mL/L every 6 hours
Protocol: as §1

Compound: [Cl-].[Na+] [NaCl, sodium chloride]
- % Chytrid infection in 230L reactors (chytrids; 4 ppt, 2 d): 0.00%
- % Chytrid infection in 230L reactors (chytrids; 4 ppt, 3 d): 1.67%
- % Chytrid infection in 230L reactors (chytrids; 4 ppt, 4 d): 0.00%
- % Chytrid infection in 230L reactors (chytrids; 4 ppt, 5 d): 0.00%
- % Chytrid infection in 230L reactors (chytrids; 4 ppt, 6 d): 0.00%
- % Chytrid infection in 230L reactors (chytrids; 4 ppt, 7 d): 1.67%
- % Chytrid infection in 230L reactors (chytrids; 4 ppt, 8 d): 0.00%
- % Chytrid infection in 230L reactors (chytrids; 4 ppt, 9 d): 11.67%
- % Chytrid infection in 230L reactors (chytrids; 4 ppt, 10 d): 30.00%
- % Chytrid infection in 230L reactors (chytrids; 4 ppt, 11 d): 36.67%
- % Chytrid infection in 230L reactors (chytrids; 4 ppt, 12 d): 65.00%
- % Chytrid infection in 230L reactors (chytrids; 5 ppt, 2 d): 1.67%
- % Chytrid infection in 230L reactors (chytrids; 5 ppt, 3 d): 0.00%
- % Chytrid infection in 230L reactors (chytrids; 5 ppt, 4 d): 1.67%
- % Chytrid infection in 230L reactors (chytrids; 5 ppt, 5 d): 0.00%
- % Chytrid infection in 230L reactors (chytrids; 5 ppt, 6 d): 0.00%
- % Chytrid infection in 230L reactors (chytrids; 5 ppt, 7 d): 8.33%
- % Chytrid infection in 230L reactors (chytrids; 5 ppt, 8 d): 0.00%
- % Chytrid infection in 230L reactors (chytrids; 5 ppt, 9 d): 10.00%
- % Chytrid infection in 230L reactors (chytrids; 5 ppt, 10 d): 3.33%
- % Chytrid infection in 230L reactors (chytrids; 5 ppt, 11 d): 13.33%
- % Chytrid infection in 230L reactors (chytrids; 5 ppt, 12 d): 28.33%
- % Chytrid infection in 230L reactors (chytrids; 6 ppt, 2 d): 1.67%
- % Chytrid infection in 230L reactors (chytrids; 6 ppt, 3 d): 0.00%
- % Chytrid infection in 230L reactors (chytrids; 6 ppt, 4 d): 1.67%
- % Chytrid infection in 230L reactors (chytrids; 6 ppt, 5 d): 1.67%
- % Chytrid infection in 230L reactors (chytrids; 6 ppt, 6 d): 1.67%
- % Chytrid infection in 230L reactors (chytrids; 6 ppt, 7 d): 5.00%
- % Chytrid infection in 230L reactors (chytrids; 6 ppt, 8 d): 3.33%
- % Chytrid infection in 230L reactors (chytrids; 6 ppt, 9 d): 0.00%
- % Chytrid infection in 230L reactors (chytrids; 6 ppt, 10 d): 1.67%
- % Chytrid infection in 230L reactors (chytrids; 6 ppt, 11 d): 0.00%
- % Chytrid infection in 230L reactors (chytrids; 6 ppt, 12 d): 15.00%
- % Chytrid infection in 230L reactors (chytrids; 7 ppt, 2 d): 3.33%
- % Chytrid infection in 230L reactors (chytrids; 7 ppt, 3 d): 0.00%
- % Chytrid infection in 230L reactors (chytrids; 7 ppt, 4 d): 0.00%
- % Chytrid infection in 230L reactors (chytrids; 7 ppt, 5 d): 1.67%
- % Chytrid infection in 230L reactors (chytrids; 7 ppt, 6 d): 0.00%
- % Chytrid infection in 230L reactors (chytrids; 7 ppt, 7 d): 5.00%
- % Chytrid infection in 230L reactors (chytrids; 7 ppt, 8 d): 1.67%
- % Chytrid infection in 230L reactors (chytrids; 7 ppt, 9 d): 3.33%
- % Chytrid infection in 230L reactors (chytrids; 7 ppt, 10 d): 5.00%
- % Chytrid infection in 230L reactors (chytrids; 7 ppt, 11 d): 0.00%
- % Chytrid infection in 230L reactors (chytrids; 7 ppt, 12 d): 3.33%
- % Chytrid infection in 230L reactors (chytrids; 8 ppt, 2 d): 0.00%
- % Chytrid infection in 230L reactors (chytrids; 8 ppt, 3 d): 0.00%
- % Chytrid infection in 230L reactors (chytrids; 8 ppt, 4 d): 0.00%
- % Chytrid infection in 230L reactors (chytrids; 8 ppt, 5 d): 1.67%
- % Chytrid infection in 230L reactors (chytrids; 8 ppt, 6 d): 0.00%
- % Chytrid infection in 230L reactors (chytrids; 8 ppt, 7 d): 0.00%
- % Chytrid infection in 230L reactors (chytrids; 8 ppt, 8 d): 0.00%
- % Chytrid infection in 230L reactors (chytrids; 8 ppt, 9 d): 0.00%
- % Chytrid infection in 230L reactors (chytrids; 8 ppt, 10 d): 1.67%
- % Chytrid infection in 230L reactors (chytrids; 8 ppt, 11 d): 1.67%
- % Chytrid infection in 230L reactors (chytrids; 8 ppt, 12 d): 3.33%
- % Chytrid infection in 230L reactors (chytrids; 10 ppt, 2 d): 0.00%
- % Chytrid infection in 230L reactors (chytrids; 10 ppt, 3 d): 0.00%
- % Chytrid infection in 230L reactors (chytrids; 10 ppt, 4 d): 1.67%
- % Chytrid infection in 230L reactors (chytrids; 10 ppt, 5 d): 0.00%
- % Chytrid infection in 230L reactors (chytrids; 10 ppt, 6 d): 0.00%
- % Chytrid infection in 230L reactors (chytrids; 10 ppt, 7 d): 0.00%
- % Chytrid infection in 230L reactors (chytrids; 10 ppt, 8 d): 0.00%
- % Chytrid infection in 230L reactors (chytrids; 10 ppt, 9 d): 1.67%
- % Chytrid infection in 230L reactors (chytrids; 10 ppt, 10 d): 0.00%
- % Chytrid infection in 230L reactors (chytrids; 10 ppt, 11 d): 6.67%
- % Chytrid infection in 230L reactors (chytrids; 10 ppt, 12 d): 3.33%
- % Chytrid infection in 230L reactors (chytrids; 18 ppt, 2 d): 0.00%
- % Chytrid infection in 230L reactors (chytrids; 18 ppt, 3 d): 0.00%
- % Chytrid infection in 230L reactors (chytrids; 18 ppt, 4 d): 0.00%
- % Chytrid infection in 230L reactors (chytrids; 18 ppt, 5 d): 3.33%
- % Chytrid infection in 230L reactors (chytrids; 18 ppt, 6 d): 0.00%
- % Chytrid infection in 230L reactors (chytrids; 18 ppt, 7 d): 0.00%
- % Chytrid infection in 230L reactors (chytrids; 18 ppt, 8 d): 1.67%
- % Chytrid infection in 230L reactors (chytrids; 18 ppt, 9 d): 3.33%
- % Chytrid infection in 230L reactors (chytrids; 18 ppt, 10 d): 0.00%
- % Chytrid infection in 230L reactors (chytrids; 18 ppt, 11 d): 1.67%
- % Chytrid infection in 230L reactors (chytrids; 18 ppt, 12 d): 1.67%
- chytrid infection (chytrids; treatments at 7 ppt and above in 230 L reactors): 5-10%
- microscope observation of pure chytrid culture (pure chytrid culture; Example 13, 20 ppt, after 1 hour): clumped sporangia and zoospores
- microscope observation of pure chytrid culture (pure chytrid culture; Example 13, 20 ppt, after 24 hours): Wilting sporangia and no zoospores
- microscope observation of pure chytrid culture (pure chytrid culture; Example 13, 20 ppt, after 48 hours): bacteria with shriveled zoospores and sporangia
- microscope observation of pure chytrid culture (pure chytrid culture; Example 13, 20 ppt, after 72 hours): no zoospores or sporangia
- microscope observation of pure chytrid culture (pure chytrid culture; Example 14, 5 ppt, after 1 hour): a less dense mass of zoospores with some being motile but sluggish
- microscope observation of pure chytrid culture (pure chytrid culture; Example 14, 5 ppt, after 4.5 hours): A mix of non-motile and motile zoospores
- microscope observation of pure chytrid culture (pure chytrid culture; Example 14, 10 ppt, after 1 hour): a mass of zoospores at the same density as the 5 ppt treatment but with all being non-motile
- microscope observation of pure chytrid culture (pure chytrid culture; Example 14, 10 ppt, after 4.5 hours): Non-motile zoospores only
- microscope observation of pure chytrid culture (pure chytrid culture; Example 14, 20 ppt, after 1 hour): a mass of zoospores less dense than mass of the 5 and 10 ppt treatments but with all being non-motile
- microscope observation of pure chytrid culture (pure chytrid culture; Example 14, 20 ppt, after 4.5 hours): Non-motile zoospores only

Compound: hydrogen peroxide [H2O2]
- Motility [1]: above 60%
- lysis [1]: ≤ 15%
- reduction in the bacteria count (live bacteria; vs untreated control): approximately 1 log
- Live Bacteria Count (live bacteria; 11 h): 4.8 × 10^5 CFU/mL
- Live Bacteria Count (live bacteria; 34 h): 5.5 × 10^6 CFU/mL
- Live Bacteria Count (live bacteria; 52 h): 1.8 × 10^5 CFU/mL
- Live Bacteria Count (live bacteria; 66 h): 4.5 × 10^5 CFU/mL
